Experimental data as given in US6370478B1, “Methods for drug interaction prediction using biological response profiles” (Rosetta Inpharmatics, Inc., priority 1998, dated 2002).

Key:
[1] = test system: Yeast (Saccharomyces cerevisiae, Strain YPH499) mRNA transcripts; assay: Yeast mRNA response profiles measured with DNA microarrays (transcript measurement); type: cell-based
Method: Experimental methods were described in Marton et al., 1998, Drug Target Validation And Identification of Secondary Drug Target Effects Using DNA Microarrays, NATURE-MEDICINE 4:1293-301, incorporated herein by reference for all purposes. Dose response curves are plotted only for about 50 genes with the largest responses. […] In this case, any concentration near or above about 1 μg/ml would be informative, and the choice could be refined based on knowledge of the significance of the set of genes that responds at the higher concentrations.
The following experimental methods were used for all the examples. Specific experimental design is described by the examples and their accompanying figures. The specific protocol was also described in Marton et al., 1998, Drug Target Validation And Identification of Secondary Drug Target Effects Using DNA Microarrays, NATURE-MEDICINE 4:1293-301.
Yeast (Saccharomyces cerevisiae, Strain YPH499, see, Sikorski and Hieter, 1989, A system of shuttle vectors and yeast host strains designated for efficient manipulation of DNA in Saccharomyces cerevisiae, Genetics 122:19-27) cells were grown in YAPD at 30° C. to an OD600 of 1.0 (±0.2), and total RNA prepared by breaking cells in phenol/chloroform and 0.1 % SDS by standard procedures (Ausubel et al., 1995, Current Protocols in Molecular Biology, Greene Publishing and Wiley-Interscience, New York, Ch. 13). Poly(A)^+ RNA was selected by affinity chromatography on oligo-dT cellulose (New England Biolabs) essentially as described in Sambrook et al. (Molecular Cloning—A Laboratory Manual (2nd Ed.), Vol. 1, Cold Spring Harbor Laboratory, Cold Spring Harbor, N.Y., 1989). […]
Fluorescently-labeled cDNAs (2-6 μg) are resuspended in 4×SSC plus 1 μg/μl tRNA as carrier and filtered using […] filters (Millipore, Bedford, Mass.). […] Microarrays were scanned with a fluorescence laser-scanning device as previously described (Schena et al., 1995, Science 270:467-470; Schena et al., 1995, Proc. Natl. Acad. Sci. USA 93:[…]) and the results (including the positions of perturbations) are recorded.

[2] = test system: wild type yeast cells; settings: 10 micrograms/ml; Gari et al., 1997; cited from earlier work

Clc1ccccc1C(c1ccccc1)(c1ccccc1)n1ccnc1 [Clotrimazole]
relationship of the response profiles of Clotrimazole and Cyclosporin A ([1]; FIG. 4, overlap with effects of opposite sign): anti-correlation

C=CC[C@@H]1/C=C(\C)C[C@H](C)C[C@H](OC)[C@H]2O[C@@](O)(C(=O)C(=O)N3CCCC[C@H]3C(=O)O[C@H](/C(C)=C/[C@@H]3CC[C@@H](O)[C@H](OC)C3)[C@H](C)[C@@H](O)CC1=O)[C@H](C)C[C@@H]2OC [FK506]
concentration at which genes mediated by the primary target (calcineurin) reach saturation response ([1]; FIG. 1, dose response of about 50 genes with the largest responses): about 1 μg/ml
correlation coefficient between the two drug response profiles ([1]; FK506 (1.6 μg/ml) vs Cyclosporin A (30 μg/ml), genes with significant up and down regulations at the 95% confidence level, FIG. 3): 0.86

C[C@H]1c2cccc(O)c2C(=O)C2=C(O)[C@]3(O)C(=O)C(C(N)=O)=C(O)[C@@H](N(C)C)[C@@H]3[C@@H](O)[C@@H]21 [doxycycline]
effect on the growth rate [2]: no significant effect
